Key:
Assay type in all cases: cell-based
Cannabinoid receptor 1 [1] = molecular target: T1, Cannabinoid receptor 1 (Homo sapiens, UniProt P21554); experiment: Positive allosteric modulation of human CB1 receptor expressed in CHOK1 cells assessed as increase in CP55940-induced beta-arrestin recruitment at 500 nM preincubated for 30 mins followed by CP55940 addition and measured after 90 to 180 mins by PathHunter assay relative to CP55940
Cannabinoid receptor 1 [2] = molecular target: T1, Cannabinoid receptor 1; experiment: Positive allosteric modulation of human CB1 receptor expressed in CHOK1 cells assessed as increase in CP55940-induced beta-arrestin recruitment at 1000 nM preincubated for 30 mins followed by CP55940 addition and measured after 90 to 180 mins by PathHunter assay relative to CP55940
Cannabinoid receptor 1 [3] = molecular target: T1, Cannabinoid receptor 1; experiment: Positive allosteric modulation of human CB1 receptor expressed in CHOK1 cells assessed as increase in CP55940-induced beta-arrestin recruitment at 1 uM preincubated for 30 mins followed by CP55940 addition and measured after 90 to 180 mins by PathHunter assay relative to CP55940
Cannabinoid receptor 1 [4] = molecular target: T1, Cannabinoid receptor 1; experiment: Positive allosteric modulation of human CB1 receptor expressed in CHOK1 cells assessed as increase in CP55940-induced beta-arrestin recruitment at 200 nM preincubated for 30 mins followed by CP55940 addition and measured after 90 to 180 mins by PathHunter assay relative to CP55940
Cannabinoid receptor 1 [5] = molecular target: T1, Cannabinoid receptor 1; experiment: Positive allosteric modulation of human CB1 receptor expressed in CHOK1 cells assessed as increase in CP55940-induced beta-arrestin recruitment preincubated for 30 mins followed by CP55940 addition and measured after 90 to 180 mins by PathHunter assay relative to CP55940

T1 sequence (P21554 whole entry): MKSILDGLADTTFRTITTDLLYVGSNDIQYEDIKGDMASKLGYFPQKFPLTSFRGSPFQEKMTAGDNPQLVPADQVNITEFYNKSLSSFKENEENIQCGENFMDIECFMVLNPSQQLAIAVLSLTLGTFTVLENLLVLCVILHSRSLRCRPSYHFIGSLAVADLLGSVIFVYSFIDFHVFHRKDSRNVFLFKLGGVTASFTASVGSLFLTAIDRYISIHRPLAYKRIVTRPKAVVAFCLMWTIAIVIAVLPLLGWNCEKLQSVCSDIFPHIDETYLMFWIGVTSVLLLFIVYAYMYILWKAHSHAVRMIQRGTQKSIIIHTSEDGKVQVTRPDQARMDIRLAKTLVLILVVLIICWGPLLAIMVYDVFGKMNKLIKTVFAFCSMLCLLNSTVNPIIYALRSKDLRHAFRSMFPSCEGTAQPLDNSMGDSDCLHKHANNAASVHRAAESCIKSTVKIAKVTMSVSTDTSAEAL

Compound | Activity (Cannabinoid receptor 1 [3]) [%] | other results
Cc1ccc2c(C(CC(F)(F)F)c3cccs3)c(-c3ccccc3)[nH]c2c1 (racemic) | – | Activity (Cannabinoid receptor 1 [1]): > 50%
Cc1ccc2c(C(CC3CC3)CC(F)(F)F)c(-c3ccccc3)[nH]c2c1 (racemic) | – | Activity (Cannabinoid receptor 1 [2]): > 50%
Cc1ccc2c(C(C[N+](=O)[O-])c3cccs3)c(C3CC3)[nH]c2c1 (racemic) | – | Activity (Cannabinoid receptor 1 [2]): > 50%
Cc1ccc2c(C(C[N+](=O)[O-])c3cccs3)c(C3CCCC3)[nH]c2c1 (racemic) | – | Activity (Cannabinoid receptor 1 [2]): > 50%
Cc1ccc2c(C(C[N+](=O)[O-])c3cccs3)c(C3CCCCC3)[nH]c2c1 (racemic) | < 50 | –
Cc1ccc2c(C(c3ccccc3)C(C#N)C#N)c(-c3ccccc3)[nH]c2c1 (racemic) | – | Activity (Cannabinoid receptor 1 [2]): > 50%
FC(F)(F)CC(c1ccccc1)c1c(-c2ccccc2)[nH]c2cc(C(F)(F)F)ccc12 (racemic) | – | Activity (Cannabinoid receptor 1 [4]): > 50%
FC(F)(F)CC(c1ccco1)c1c(-c2ccccc2)[nH]c2cc(Cl)ccc12 (racemic) | – | Activity (Cannabinoid receptor 1 [1]): > 50%
FC(F)(F)CC(c1cccs1)c1c(-c2ccccc2)[nH]c2cc(Cl)ccc12 (racemic) | – | Activity (Cannabinoid receptor 1 [4]): > 50%
N#CC(C#N)C(c1ccccc1)c1c(-c2ccccc2)[nH]c2ccccc12 (racemic) | < 50 | –
N#CCC(c1ccccc1)c1c(-c2ccccc2)[nH]c2ccccc12 (racemic) | < 50 | –
N#Cc1ccc(-c2[nH]c3cc(Cl)ccc3c2C(C[N+](=O)[O-])c2cccs2)cc1 (racemic) | < 50 | –
N#Cc1ccc2c(C(C[N+](=O)[O-])c3cccs3)c(-c3ccccc3)[nH]c2c1 (racemic) | – | Activity (Cannabinoid receptor 1 [2]): > 50%
O=C(O)CC(c1ccccc1)c1c(-c2ccccc2)[nH]c2ccccc12 (racemic) | < 50 | –
OCC(c1ccccc1)c1c(-c2ccccc2)[nH]c2ccccc12 (racemic) | < 50 | –
COC(=O)c1ccc2c(C(CC(F)(F)F)c3cccs3)c(-c3ccccc3)[nH]c2c1 (single isomer, unassigned; (+)) | – | Activity (Cannabinoid receptor 1 [4]): > 50%; Emax (Cannabinoid receptor 1 [5]): 156%
O=C(O)CC(c1ccccc1)c1c(-c2ccccc2)[nH]c2ccccc12 (single isomer, unassigned; (+)) | < 50 | –
COC(=O)c1ccc2c(C(CC(F)(F)F)c3cccs3)c(-c3ccccc3)[nH]c2c1 (single isomer, unassigned; (-)) | – | Activity (Cannabinoid receptor 1 [4]): > 50%
O=C(O)CC(c1ccccc1)c1c(-c2ccccc2)[nH]c2ccccc12 (stereo in doubt; (-)-26) | < 50 | –

More lines, main results first:

Activity (Cannabinoid receptor 1 [3]) [%] | Compound | other results
< 50 | Cc1ccc2c(C(C[N+](=O)[O-])c3cccs3)c(-c3ccc(F)cc3)[nH]c2c1 (racemic) | –
30 to 50 | FC(F)(F)CC(c1ccccc1)c1c(-c2ccccc2)[nH]c2ccccc12 (racemic) | Activity (Cannabinoid receptor 1 [2]): > 50%
< 50 | N#Cc1cccc(-c2[nH]c3cc(Cl)ccc3c2C(C[N+](=O)[O-])c2cccs2)c1 (racemic) | –
< 50 | Nc1ccc2c(C(CC(F)(F)F)c3cccs3)c(-c3ccccc3)[nH]c2c1 (racemic) | –
30 to 50 | O=C(C(c1ccccc1)c1c(-c2ccccc2)[nH]c2ccccc12)C(F)(F)F (racemic) | –
< 50 | O=C(O)c1ccc(-c2[nH]c3cc(Cl)ccc3c2C(C[N+](=O)[O-])c2cccs2)cc1 (racemic) | –
< 50 | O=C(O)c1ccc2c(C(CC(F)(F)F)c3cccs3)c(-c3ccccc3)[nH]c2c1 (racemic) | –
< 50 | O=[N+]([O-])CC(c1cccs1)c1c(-c2ccc(Cl)cc2)[nH]c2cc(Cl)ccc12 (racemic) | –
< 50 | O=[N+]([O-])CC(c1cccs1)c1c(-c2ccc(F)cc2)[nH]c2cc(Cl)ccc12 (racemic) | –
< 50 | O=[N+]([O-])CC(c1cccs1)c1c(-c2ccccc2)[nH]c2ccc([N+](=O)[O-])cc12 (racemic) | –
< 50 | OCc1ccc2c(C(CC(F)(F)F)c3cccs3)c(-c3ccccc3)[nH]c2c1 (racemic) | –

Source: ChEMBL document CHEMBL4350967, “The Trifluoromethyl Group as a Bioisosteric Replacement of the Aliphatic Nitro Group in CB1 Receptor Positive Allosteric Modulators” (J Med Chem, 2019)
